# Test results reported in US10807992B2, “Single enantiomer antiparasitic compounds” (priority 2017, dated 2020).
# Like-named read-outs stand apart in the source and are kept apart here.
# What was measured:
# Aedes aegypti = test: In vitro ingestion activity against adult mosquitoes (artificial feeding, bovine blood); conditions: read-out: Mortality % R1 + R2
# Procedure: Aedes aegypti (Louisiana Biologicals Inc., New Orleans, La.) eggs were allowed to hatch, close, and age between 3-5 days in an environmental chamber at 26° C., 80% humidity with light/dark cycles.
# For mosquito ingestion tests, serial dilutions of the compound stock were performed using DMSO to achieve the desired range for EC50 and EC90 determination. An aliquot of each compound dilution was added to organic bovine blood with a final DMSO concentration of 0.5% and placed in a temperature-controlled artificial feeding container.
# (§1) Compounds tested were: the C1 racemate, C1 (R) enantiomer, and the C1 (S) enantiomer. For Trial 3, the C1 (R) enantiomer and the C1 (S) enantiomer were further chiral purified to achieve >99% purity.
# For both contact and ingestion assays, five female Aedes aegypti adults were added to each vial or cage. The test vials for contact assays were held in an environmental chamber at 24° C., 80% humidity with light/dark cycles (12 hours each). The cages for mosquito ingestion assays were held in a temperature-controlled artificial feeding apparatus to allow continual access to organic bovine blood containing the desired concentration of compound. Fresh aliquots of compound-spiked bovine blood were provided daily for the duration of the study.
# Assessment of mortality/knockdown was performed at various time points between 30 minutes and 24 hours post infestation. Mosquitoes showing no movement or mosquitoes that were knocked down were noted as dead. Results from trial 1 and trial 2 contact assays are shown in Tables 12 and 13, respectively and the results from trial 3 mosquito ingestion assay is shown in table 14.
# For the mosquito contact and ingestion assays, each replicate contained 5 mosquitoes. For ease of calculation, the two replicates were added to equal a total of 10 mosquitoes.
# Ixodes scapularis = test: In vitro contact activity against adult ticks (coated vial), I. scapularis; conditions: for mortality at 0.006 µM: Trial 1, dose 0.006 μM; for mortality at 0.024 µM: Trial 1, dose 0.024 μM; for mortality at 0.098 µM: Trial 1, dose 0.098 μM; for mortality at 0.39 µM: Trial 1, dose 0.39 μM; for mortality at 1.56 µM: Trial 1, dose 1.56 μM; for mortality at 6.25 µM: Trial 1, dose 6.25 μM; for mortality at 25 µM: Trial 1, dose 25 μM; for mortality at 100 µM: Trial 1, dose 100 μM
# Procedure: Rhipicephalus sanguineus, Dermacentor variabilis, Amblyomma americanum, (Ecto Services, Inc., Henderson, N.C.) and Ixodes scapularis (Oklahoma State University, Stillwater, Okla.) aged between 2-4 weeks post molt were held in an environmental chamber at 24° C., 80% humidity with 12-hour light/dark cycles.
# For tick assays, vial caps were pre-drilled with a single hole in the center of each cap to allow air exchange. A filter paper (Whatman Grade 540 2.1 cm) was placed in the lid of each vial. An aliquot from each compound stock was added to an acetone/triton solution to achieve the desired top doses for the study. Serial dilutions were conducted from the top dose (i.e. 100 ppm) to achieve the desired titration range for EC50 and EC90 determination. For R. sanguineus, D. variabilis, and A. americanum, the final DMSO concentration in each test vial was 0.5%. For I. scapularis, compounds were solubilized directly in an acetone/triton solution due to I. scapularis' sensitivity to DMSO. A 459 μL aliquot of each compound formulation was transferred to a vial containing a Whatman Grade 540 2.1 cm filter paper. Vials were immediately placed on an unheated roller unit to allow for an even coating of the vial walls. After vials were coated, 41 μL of each compound formulation was added to the filter paper embedded in each vial cap. Each cap was allowed to dry. The vials were loosely capped and allowed to dry for a minimum of four hours in a chemical fume hood.
# as §1
# Ten adult ticks were added to each vial and held at 24° C., 80% humidity with 12-hour light/dark cycles. Adult ticks were assessed for percent mortality at various time points between 2 hours and 48 hours post infestation. Ticks were stimulated on a heated roller unit and evaluated. Ticks showing no movement, or very slow and uncoordinated movement were noted as dead.
structure (smiles),measurement,setting,value
"O=C(CC(F)(F)F)N1CC2(C1)OCc1cc(C3=NSC(c4cc(Cl)c(F)c(Cl)c4)(C(F)(F)F)C3)ccc12 (racemic) [C1 racemate, 1-[6-[5-(3,5-dichloro-4-fluoro-phenyl)-5-(trifluoromethyl)-4H-isothiazol-3-yl]spiro[1H-isobenzofuran-3,3′-azetidine]-1′-yl]-3,3,3-trifluoro-propan-1-one]",mortality at 0.049 ppm,Aedes aegypti; 24 h,71.4%
same,mortality at 0.2 ppm,Aedes aegypti; 24 h,100%
same,mortality at 0.78 ppm,Aedes aegypti; 24 h,100%
same,mortality at 3.125 ppm,Aedes aegypti; 24 h,100%
same,mortality at 12.5 ppm,Aedes aegypti; 24 h,100%
same,mortality at 50 ppm,Aedes aegypti; 24 h,100%
same,mortality at 0.049 ppm,Aedes aegypti,0%
same,mortality at 0.2 ppm,Aedes aegypti,0%
same,mortality at 0.78 ppm,Aedes aegypti,50%
same,mortality at 3.125 ppm,Aedes aegypti,100%
same,mortality at 12.5 ppm,Aedes aegypti,100%
same,mortality at 50 ppm,Aedes aegypti,100%
same,mortality at 0.006 µM,"Ixodes scapularis; 2 h, Rep1",0%
same,mortality at 0.006 µM,"Ixodes scapularis; 2 h, Rep2",0%
same,mortality at 0.024 µM,"Ixodes scapularis; 2 h, Rep1",0%
same,mortality at 0.024 µM,"Ixodes scapularis; 2 h, Rep2",0%
same,mortality at 0.098 µM,"Ixodes scapularis; 2 h, Rep1",0%
same,mortality at 0.098 µM,"Ixodes scapularis; 2 h, Rep2",0%
same,mortality at 0.39 µM,"Ixodes scapularis; 2 h, Rep1",0%
same,mortality at 0.39 µM,"Ixodes scapularis; 2 h, Rep2",0%
same,mortality at 1.56 µM,"Ixodes scapularis; 2 h, Rep1",0%
same,mortality at 1.56 µM,"Ixodes scapularis; 2 h, Rep2",0%
same,mortality at 6.25 µM,"Ixodes scapularis; 2 h, Rep1",0%
same,mortality at 6.25 µM,"Ixodes scapularis; 2 h, Rep2",0%
same,mortality at 25 µM,"Ixodes scapularis; 2 h, Rep1",0%
same,mortality at 25 µM,"Ixodes scapularis; 2 h, Rep2",0%
same,mortality at 100 µM,"Ixodes scapularis; 2 h, Rep1",0%
same,mortality at 100 µM,"Ixodes scapularis; 2 h, Rep2",0%
same,mortality at 0.006 µM,"Ixodes scapularis; 6 h, Rep1",0%
same,mortality at 0.006 µM,"Ixodes scapularis; 6 h, Rep2",0%
same,mortality at 0.024 µM,"Ixodes scapularis; 6 h, Rep1",0%
same,mortality at 0.024 µM,"Ixodes scapularis; 6 h, Rep2",0%
same,mortality at 0.098 µM,"Ixodes scapularis; 6 h, Rep1",0%
same,mortality at 0.098 µM,"Ixodes scapularis; 6 h, Rep2",0%
same,mortality at 0.39 µM,"Ixodes scapularis; 6 h, Rep1",0%
same,mortality at 0.39 µM,"Ixodes scapularis; 6 h, Rep2",0%
same,mortality at 1.56 µM,"Ixodes scapularis; 6 h, Rep1",0%
same,mortality at 1.56 µM,"Ixodes scapularis; 6 h, Rep2",0%
same,mortality at 6.25 µM,"Ixodes scapularis; 6 h, Rep1",0%
same,mortality at 6.25 µM,"Ixodes scapularis; 6 h, Rep2",0%
same,mortality at 25 µM,"Ixodes scapularis; 6 h, Rep1",10%
same,mortality at 25 µM,"Ixodes scapularis; 6 h, Rep2",40%
same,mortality at 100 µM,"Ixodes scapularis; 6 h, Rep1",100%
same,mortality at 100 µM,"Ixodes scapularis; 6 h, Rep2",50%
same,mortality at 0.006 µM,"Ixodes scapularis; 12 h, Rep1",0%
same,mortality at 0.006 µM,"Ixodes scapularis; 12 h, Rep2",0%
same,mortality at 0.024 µM,"Ixodes scapularis; 12 h, Rep1",0%
same,mortality at 0.024 µM,"Ixodes scapularis; 12 h, Rep2",0%
same,mortality at 0.098 µM,"Ixodes scapularis; 12 h, Rep1",0%
same,mortality at 0.098 µM,"Ixodes scapularis; 12 h, Rep2",0%
same,mortality at 0.39 µM,"Ixodes scapularis; 12 h, Rep1",0%
same,mortality at 0.39 µM,"Ixodes scapularis; 12 h, Rep2",10%
same,mortality at 1.56 µM,"Ixodes scapularis; 12 h, Rep1",0%
same,mortality at 1.56 µM,"Ixodes scapularis; 12 h, Rep2",0%
same,mortality at 6.25 µM,"Ixodes scapularis; 12 h, Rep1",0%
same,mortality at 6.25 µM,"Ixodes scapularis; 12 h, Rep2",70%
same,mortality at 25 µM,"Ixodes scapularis; 12 h, Rep1",50%
same,mortality at 25 µM,"Ixodes scapularis; 12 h, Rep2",70%
same,mortality at 100 µM,"Ixodes scapularis; 12 h, Rep1",100%
same,mortality at 100 µM,"Ixodes scapularis; 12 h, Rep2",100%
same,mortality at 0.006 µM,"Ixodes scapularis; 24 h, Rep1",0%
same,mortality at 0.006 µM,"Ixodes scapularis; 24 h, Rep2",0%
same,mortality at 0.024 µM,"Ixodes scapularis; 24 h, Rep1",0%
same,mortality at 0.024 µM,"Ixodes scapularis; 24 h, Rep2",30%
same,mortality at 0.098 µM,"Ixodes scapularis; 24 h, Rep1",0%
same,mortality at 0.098 µM,"Ixodes scapularis; 24 h, Rep2",20%
same,mortality at 0.39 µM,"Ixodes scapularis; 24 h, Rep1",50%
same,mortality at 0.39 µM,"Ixodes scapularis; 24 h, Rep2",50%
same,mortality at 1.56 µM,"Ixodes scapularis; 24 h, Rep1",10%
same,mortality at 1.56 µM,"Ixodes scapularis; 24 h, Rep2",30%
same,mortality at 6.25 µM,"Ixodes scapularis; 24 h, Rep1",80%
same,mortality at 6.25 µM,"Ixodes scapularis; 24 h, Rep2",100%
same,mortality at 25 µM,"Ixodes scapularis; 24 h, Rep1",90%
same,mortality at 25 µM,"Ixodes scapularis; 24 h, Rep2",100%
same,mortality at 100 µM,"Ixodes scapularis; 24 h, Rep1",100%
same,mortality at 100 µM,"Ixodes scapularis; 24 h, Rep2",100%
same,mortality at 0.006 µM,"Ixodes scapularis; 48 h, Rep1",10%
same,mortality at 0.006 µM,"Ixodes scapularis; 48 h, Rep2",0%
same,mortality at 0.024 µM,"Ixodes scapularis; 48 h, Rep1",10%
same,mortality at 0.024 µM,"Ixodes scapularis; 48 h, Rep2",30%
same,mortality at 0.098 µM,"Ixodes scapularis; 48 h, Rep1",0%
same,mortality at 0.098 µM,"Ixodes scapularis; 48 h, Rep2",60%
same,mortality at 0.39 µM,"Ixodes scapularis; 48 h, Rep1",70%
same,mortality at 0.39 µM,"Ixodes scapularis; 48 h, Rep2",100%
same,mortality at 1.56 µM,"Ixodes scapularis; 48 h, Rep1",90%
same,mortality at 1.56 µM,"Ixodes scapularis; 48 h, Rep2",80%
same,mortality at 6.25 µM,"Ixodes scapularis; 48 h, Rep1",100%
same,mortality at 6.25 µM,"Ixodes scapularis; 48 h, Rep2",100%
same,mortality at 25 µM,"Ixodes scapularis; 48 h, Rep1",100%
same,mortality at 25 µM,"Ixodes scapularis; 48 h, Rep2",100%
same,mortality at 100 µM,"Ixodes scapularis; 48 h, Rep1",100%
same,mortality at 100 µM,"Ixodes scapularis; 48 h, Rep2",100%
